One assay deals with T1, Human mTOR (FLAG-TOR) (Homo sapiens, UniProt P42345).
T1 construct: FLAG
The experiment in a line: Human mTOR kinase assay with purified enzyme, DELFIA format. The class given is biochemical. As to conditions: purified human mTOR enzyme, DELFIA format. The gist of the method: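 DELFIA readout: Eu-anti-P(T389)-S6K antibody (40 ng/mL, 1 h) on captured His6-S6K from the stopped reaction. Kinase step used purified FLAG-tagged human mTOR with test compound in HEPES (pH 7.4)/MnCl2/DTT buffer, 2 h at room temperature (linear 1–6 h), terminated by EDTA/EGTA.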

The next assay concerns breast line MDA468. The experiment in a line: In vitro cell culture growth assay (MTS), MDA468. The format is cell-based. As to conditions: Homo sapiens, 72 h, MDA468 cells, three days after drug treatment. The gist of the method: (§1)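 Plate cells; add inhibitors on day 1; after 3 days' treatment, add MTS; read A490; express as percent growth of vehicle-treated control.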
A further assay deals with prostate line LNCap. Kind of assay: In vitro cell culture growth assay (MTS), LNCap. The format is cell-based. The settings on record: Homo sapiens, LNCaP, 72 h, LNCap cells, three days after drug treatment. The method, boiled down: as §1
Assay [1] has as its target T2, PI3K (Homo sapiens, UniProt P48736).
T2 construct: PI3 Kinase γ IC50; other: PI3 Kinase γ; other: PI3 Kinase γ isoform, fluorescence polarization
The experiment in a line: Fluorescence polarization assay for PI3K. The settings on record: PI3 Kinase γ isoform, fluorescence polarization; read-out: PI3 Kinase γ IC50. The format is biochemical. The gist of the method: (§2)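 Fluorescence-polarization competition readout: after 30–60 min of PIP2/ATP turnover in 1% DMSO, a stop mix with GST-GRP (70 nM) and red probe (10 nM) was added.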
(In fluorescence polarisation assays a small probe gives low polarisation when free and higher when bound to something large.)

Assay [2] addresses T3, PI3K (Homo sapiens, UniProt P42336).
T3 construct: PI3 Kinase α IC50; other: PI3 Kinase α; other: PI3 Kinase α isoform, fluorescence polarization
The experiment in a line: Fluorescence polarization assay for PI3K. The class given is biochemical. The settings on record: PI3 Kinase α isoform, fluorescence polarization; read-out: PI3 Kinase α IC50. The method, boiled down:
as §2

The source of these data is US8129371B2, “Thienopyrimidine and pyrazolopyrimidine compounds and their use as mTOR kinase and PI3 kinase inhibitors” (Wyeth LLC, priority 2007, dated 2012).

T3 sequence (P42336 whole entry, canonical isoform): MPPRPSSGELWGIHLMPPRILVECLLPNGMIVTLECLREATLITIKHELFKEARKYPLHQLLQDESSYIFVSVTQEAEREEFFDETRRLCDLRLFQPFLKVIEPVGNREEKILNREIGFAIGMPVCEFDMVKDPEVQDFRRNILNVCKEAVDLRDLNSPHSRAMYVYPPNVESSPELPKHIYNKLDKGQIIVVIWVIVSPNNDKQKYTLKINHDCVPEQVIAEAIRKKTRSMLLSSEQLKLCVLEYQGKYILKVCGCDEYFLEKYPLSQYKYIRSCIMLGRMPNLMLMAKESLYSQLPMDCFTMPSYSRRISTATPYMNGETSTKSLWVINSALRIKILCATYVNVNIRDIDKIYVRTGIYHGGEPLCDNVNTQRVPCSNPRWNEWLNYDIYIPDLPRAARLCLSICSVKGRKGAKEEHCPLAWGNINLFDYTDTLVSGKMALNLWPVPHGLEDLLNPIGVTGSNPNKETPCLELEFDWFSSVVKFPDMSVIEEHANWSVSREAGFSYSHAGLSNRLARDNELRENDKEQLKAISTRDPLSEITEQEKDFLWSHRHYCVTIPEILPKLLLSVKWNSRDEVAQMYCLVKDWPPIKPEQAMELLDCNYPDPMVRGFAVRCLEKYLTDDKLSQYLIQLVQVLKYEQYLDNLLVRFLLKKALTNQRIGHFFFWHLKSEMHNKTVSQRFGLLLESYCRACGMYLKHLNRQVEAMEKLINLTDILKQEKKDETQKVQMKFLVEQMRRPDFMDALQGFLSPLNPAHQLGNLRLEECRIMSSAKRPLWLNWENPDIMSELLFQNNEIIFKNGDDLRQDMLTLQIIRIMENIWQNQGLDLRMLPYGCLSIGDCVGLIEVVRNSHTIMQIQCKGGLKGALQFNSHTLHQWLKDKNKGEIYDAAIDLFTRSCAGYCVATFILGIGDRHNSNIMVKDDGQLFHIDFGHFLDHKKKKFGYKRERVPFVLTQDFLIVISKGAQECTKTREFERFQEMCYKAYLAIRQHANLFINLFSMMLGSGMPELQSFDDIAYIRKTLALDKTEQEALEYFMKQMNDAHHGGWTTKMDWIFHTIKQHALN
T2 sequence (P48736 whole entry, canonical isoform): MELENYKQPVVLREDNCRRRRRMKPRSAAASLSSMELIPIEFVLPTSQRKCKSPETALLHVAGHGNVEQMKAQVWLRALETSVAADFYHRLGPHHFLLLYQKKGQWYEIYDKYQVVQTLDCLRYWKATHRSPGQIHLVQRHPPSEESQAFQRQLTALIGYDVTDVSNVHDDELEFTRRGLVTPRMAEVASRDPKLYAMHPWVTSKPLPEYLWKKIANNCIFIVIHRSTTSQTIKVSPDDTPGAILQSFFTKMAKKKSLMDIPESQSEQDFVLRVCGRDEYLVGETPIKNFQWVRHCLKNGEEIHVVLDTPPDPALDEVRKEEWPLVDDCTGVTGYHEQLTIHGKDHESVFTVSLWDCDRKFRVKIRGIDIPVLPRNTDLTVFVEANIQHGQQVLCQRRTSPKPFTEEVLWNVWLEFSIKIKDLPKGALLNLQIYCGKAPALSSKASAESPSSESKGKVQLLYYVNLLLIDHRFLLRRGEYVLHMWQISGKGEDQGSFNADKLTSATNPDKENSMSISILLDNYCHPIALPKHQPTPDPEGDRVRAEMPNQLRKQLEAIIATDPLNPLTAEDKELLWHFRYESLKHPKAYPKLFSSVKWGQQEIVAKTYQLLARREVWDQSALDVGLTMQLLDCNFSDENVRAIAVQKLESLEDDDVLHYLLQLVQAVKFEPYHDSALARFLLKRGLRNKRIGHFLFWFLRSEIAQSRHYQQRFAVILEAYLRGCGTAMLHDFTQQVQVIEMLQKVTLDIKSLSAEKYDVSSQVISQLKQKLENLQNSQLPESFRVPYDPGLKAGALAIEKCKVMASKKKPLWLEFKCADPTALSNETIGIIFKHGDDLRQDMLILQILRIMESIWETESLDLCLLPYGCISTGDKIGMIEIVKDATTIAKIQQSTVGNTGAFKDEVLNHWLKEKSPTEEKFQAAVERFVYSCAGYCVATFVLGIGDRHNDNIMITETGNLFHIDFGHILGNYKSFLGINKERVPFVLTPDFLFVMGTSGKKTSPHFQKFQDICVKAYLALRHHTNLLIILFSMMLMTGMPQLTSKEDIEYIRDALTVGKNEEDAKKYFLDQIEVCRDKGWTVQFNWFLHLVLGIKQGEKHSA

Usually IC50 stands for the concentration that inhibits the measured activity by half. On to `CCn1nc(N2CCN(C)CC2)c2c(N3CC4CCC(C3)O4)nc(-c3ccc(NC(=O)NC)cc3)nc21` [Example 348, 1-{4-[1-ethyl-3-(4-methylpiperazin-1-yl)-4-(8-oxa-3-azabicyclo[3.2.1]oct-3-yl)-1H-pyrazolo[3,4-d]pyrimidin-6-yl]phenyl}-3-methylurea], for which the half-maximal inhibitory concentration (IC50) against Human mTOR (FLAG-TOR) amounted to 7.5 nM; with breast line MDA468, 1000 nM; with prostate line LNCap it was 280 nM; at PI3K [1] it was 8590 nM; at PI3K [2], 1010 nM.

`CCn1nc(-c2cccnc2)c2c(N3CC4CCC(C3)O4)nc(-c3ccc(NC(=O)NC)cc3)nc21` [Example 349, 1-{4-[1-ethyl-4-(8-oxa-3-azabicyclo[3.2.1]oct-3-yl)-3-pyridin-3-yl-1H-pyrazolo[3,4-d]pyrimidin-6-yl]phenyl}-3-methylurea]: the IC50 on Human mTOR (FLAG-TOR) was found to be 8.9 nM; in the assay with breast line MDA468 it was 800 nM; in the assay on prostate line LNCap it was 210 nM; on PI3K [1] it was 4960 nM; at PI3K [2], 596 nM.

For the compound `C=Cc1nn(CC)c2nc(-c3ccc(NC(=O)NC)cc3)nc(N3CC4CCC(C3)O4)c12` [Example 350, 1-{4-[1-ethyl-4-(8-oxa-3-azabicyclo[3.2.1]oct-3-yl)-3-vinyl-1H-pyrazolo[3,4-d]pyrimidin-6-yl]phenyl}-3-methylurea], the 50% inhibitory concentration (IC50) on Human mTOR (FLAG-TOR) was 1.95 nM; in the assay on breast line MDA468, 480 nM; with prostate line LNCap, 130 nM; at PI3K [1], 6580 nM; on PI3K [2], 565 nM.

`CCn1nc(C(O)CO)c2c(N3CC4CCC(C3)O4)nc(-c3ccc(NC(=O)NC)cc3)nc21` (stereo not shown) [Example 351, 1-{4-[3-(1,2-dihydroxyethyl)-1-ethyl-4-(8-oxa-3-azabicyclo[3.2.1]oct-3-yl)-1H-pyrazolo[3,4-d]pyrimidin-6-yl]phenyl}-3-methylurea]: the IC50 on Human mTOR (FLAG-TOR) was 9 nM; with breast line MDA468, 1600 nM; in the assay on prostate line LNCap, 1050 nM; at PI3K [1] it was above 10000 nM; at PI3K [2] it was 2460 nM.

Consider `CCn1nc(C=O)c2c(N3CC4CCC(C3)O4)nc(-c3ccc(NC(=O)NC)cc3)nc21` [Example 352, 1-{4-[1-ethyl-3-formyl-4-(8-oxa-3-azabicyclo[3.2.1]oct-3-yl)-1H-pyrazolo[3,4-d]pyrimidin-6-yl]phenyl}-3-methylurea], for which the IC50 is 17.5 nM against Human mTOR (FLAG-TOR); 700 nM in the assay on breast line MDA468; 200 nM in the assay on prostate line LNCap; 6100 nM at PI3K [1]; 1080 nM on PI3K [2].

As to `CCn1nc(CN2CCN(C)CC2)c2c(N3CC4CCC(C3)O4)nc(-c3ccc(NC(=O)NC)cc3)nc21` [Example 353, 1-(4-{1-ethyl-3-[(4-methylpiperazin-1-yl)methyl]-4-(8-oxa-3-azabicyclo[3.2.1]oct-3-yl)-1H-pyrazolo[3,4-d]pyrimidin-6-yl}phenyl)-3-methylurea], the IC50 at Human mTOR (FLAG-TOR) is 15 nM; with breast line MDA468 it was 1200 nM; in the assay with prostate line LNCap, 700 nM; at PI3K [1], above 10000 nM; on PI3K [2] it was 1560 nM.

As to `CCn1nc(CN2CCCC2)c2c(N3CC4CCC(C3)O4)nc(-c3ccc(NC(=O)NC)cc3)nc21` [Example 354, 1-{4-[1-ethyl-4-(8-oxa-3-azabicyclo[3.2.1]oct-3-yl)-3-(pyrrolidin-1-ylmethyl)-1H-pyrazolo[3,4-d]pyrimidin-6-yl]phenyl}-3-methylurea], the half-inhibitory concentration (IC50) on Human mTOR (FLAG-TOR) is 66.5 nM; with breast line MDA468 it was 2900 nM; in the assay with prostate line LNCap, 1200 nM; at PI3K [1] it was above 10000 nM; at PI3K [2], 2390 nM.

Take `COC(=O)N1CCC(n2ncc3c(N4C5CCC4COC5)nc(-c4ccc(NC(=O)OCCO)cc4)nc32)CC1` [Example 355, methyl 4-[6-(4-{[(2-hydroxyethoxy)carbonyl]amino}phenyl)-4-(3-oxa-8-azabicyclo[3.2.1]oct-8-yl)-1H-pyrazolo[3,4-d]pyrimidin-1-yl]piperidine-1-carboxylate]: the half-inhibitory concentration (IC50) on Human mTOR (FLAG-TOR) worked out at 0.775 nM; with breast line MDA468, 220 nM; with prostate line LNCap it was 58 nM; at PI3K [1], 6800 nM; on PI3K [2], 7450 nM.

Take `CNC(=O)Nc1ccc(-c2nc(N3C4CCC3COC4)c3cnn(C4CCN(C(=O)OC)CC4)c3n2)cc1` [Example 356, methyl 4-[6-{4-[(methylcarbamoyl)amino]phenyl}-4-(3-oxa-8-azabicyclo[3.2.1]oct-8-yl)-1H-pyrazolo[3,4-d]pyrimidin-1-yl]piperidine-1-carboxylate]: the IC50 at Human mTOR (FLAG-TOR) was 0.22 nM; with breast line MDA468, 50 nM; in the assay on prostate line LNCap it was 30 nM; on PI3K [1] it was 6740 nM; at PI3K [2], 4270 nM.

For the compound `CCNC(=O)Nc1ccc(-c2nc(N3C4CCC3COC4)c3cnn(C4CCN(C(=O)OC)CC4)c3n2)cc1` [Example 357, methyl 4-[6-{4-[(ethylcarbamoyl)amino]phenyl}-4-(3-oxa-8-azabicyclo[3.2.1]oct-8-yl)-1H-pyrazolo[3,4-d]pyrimidin-1-yl]piperidine-1-carboxylate], the IC50 against Human mTOR (FLAG-TOR) stood at 0.625 nM; in the assay with breast line MDA468 it was 70 nM; in the assay on prostate line LNCap, 9 nM; on PI3K [1] it was 9160 nM; at PI3K [2], 5550 nM.

With `COC(=O)N1CCC(n2ncc3c(N4C5CCC4COC5)nc(-c4ccc(NC(=O)NCCF)cc4)nc32)CC1` [Example 358, methyl 4-[6-(4-{[(2-fluoroethyl)carbamoyl]amino}phenyl)-4-(3-oxa-8-azabicyclol[3.2.1]oct-8-yl)-1H-pyrazolo[3,4-d]pyrimidin-1-yl]piperidine-1-carboxylate], the IC50 on Human mTOR (FLAG-TOR) was 0.495 nM; in the assay with breast line MDA468 it was 35 nM; in the assay on prostate line LNCap, 6 nM; at PI3K [1] it was 7930 nM; at PI3K [2], 7700 nM.

`COC(=O)N1CCC(n2ncc3c(N4C5CCC4COC5)nc(-c4ccc(NC(=O)NC5CC5)cc4)nc32)CC1` [Example 359, methyl 4-[6-{4-[(cyclopropylcarbamoyl)amino]phenyl}-4-(3-oxa-8-azabicyclo[3.2.1]oct-8-yl)-1H-pyrazolo[3,4-d]pyrimidin-1-yl]piperidine-1-carboxylate]: the IC50 against Human mTOR (FLAG-TOR) is 0.705 nM; in the assay on breast line MDA468, 36 nM; in the assay with prostate line LNCap, 6 nM; at PI3K [1] it was 7790 nM; at PI3K [2] it was 5640 nM.

In the case of `COC(=O)N1CCC(n2ncc3c(N4C5CCC4COC5)nc(-c4ccc(NC(=O)Nc5ccccc5)cc4)nc32)CC1` [Example 360, methyl 4-[4-(3-oxa-8-azabicyclo[3.2.1]oct-8-yl)-6-{4-[(phenylcarbamoyl)amino]phenyl}-1H-pyrazolo[3,4-d]pyrimidin-1-yl]piperidine-1-carboxylate], the IC50 worked out at 0.425 nM on Human mTOR (FLAG-TOR); 40 nM with breast line MDA468; 10 nM in the assay with prostate line LNCap; 2150 nM on PI3K [1]; 1460 nM at PI3K [2].

In the case of `COC(=O)N1CCC(n2ncc3c(N4C5CCC4COC5)nc(-c4ccc(NC(=O)Nc5cccnc5)cc4)nc32)CC1` [Example 361, methyl 4-[4-(3-oxa-8-azabicyclo[3.2.1]oct-8-yl)-6-{4-[(pyridin-3-ylcarbamoyl)amino]phenyl}-1H-pyrazolo[3,4-d]pyrimidin-1-yl]piperidine-1-carboxylate], the IC50 came out at 0.165 nM on Human mTOR (FLAG-TOR); 20 nM in the assay on breast line MDA468; 2 nM with prostate line LNCap; 4070 nM on PI3K [1]; 1830 nM on PI3K [2].

Turning to `COC(=O)N1CCC(n2ncc3c(N4C5CCC4COC5)nc(-c4ccc(NC(=O)Nc5ccncc5)cc4)nc32)CC1` [Example 362, methyl 4-[4-(3-oxa-8-azabicyclo[3.2.1]oct-8-yl)-6-{4-[(pyridin-4-ylcarbamoyl)amino]phenyl}-1H-pyrazolo[3,4-d]pyrimidin-1-yl]piperidine-1-carboxylate], the half-maximal inhibitory concentration (IC50) against Human mTOR (FLAG-TOR) was determined as 0.26 nM; in the assay with breast line MDA468, 10 nM; in the assay with prostate line LNCap, 3 nM; on PI3K [1] it was 2000 nM; at PI3K [2] it was 1930 nM.

Take `COC(=O)N1CCC(n2ncc3c(N4C5CCC4COC5)nc(-c4ccc(NC(=O)Nc5ccc(N6CCN(C)CC6)cc5)cc4)nc32)CC1` [Example 363, methyl 4-{6-[4-({[4-(4-methylpiperazin-1-yl)phenyl]carbamoyl}amino)phenyl]-4-(3-oxa-8-azabicyclo[3.2.1]oct-8-yl)-1H-pyrazolo[3,4-d]pyrimidin-1-yl}piperidine-1-carboxylate]: the IC50 was 0.545 nM against Human mTOR (FLAG-TOR); 1 nM in the assay on breast line MDA468; below 1 nM with prostate line LNCap; 3240 nM on PI3K [1]; 1590 nM at PI3K [2].

As for `COC(=O)N1CCC(n2ncc3c(N4C5CCC4COC5)nc(-c4ccc(NC(=O)Nc5ccc(N6CCNCC6)cc5)cc4)nc32)CC1` [Example 364, methyl 4-[4-(3-oxa-8-azabicyclo[3.2.1]oct-8-yl)-6-(4-{[(4-piperazin-1-ylphenyl)carbamoyl]amino}phenyl)-1H-pyrazolo[3,4-d]pyrimidin-1-yl]piperidine-1-carboxylate], the IC50 against Human mTOR (FLAG-TOR) was determined as 0.44 nM; in the assay with breast line MDA468, 4 nM; in the assay on prostate line LNCap, 1 nM; at PI3K [1], 947 nM; on PI3K [2] it was 1230 nM.
